# Source: US9255100B2 (BAYER INTELLECTUAL PROPERTY GMBH, priority 2010, dated 2016)
# Biological target: T1, N-terminally GST-tagged human full length recombinant Mps-1 kinase (Homo sapiens, UniProt P33981)
# T1 construct: N-terminally GST-tagged human full length recombinant Mps-1 kinase; purchased Invitrogen, Karslruhe, Germany PV4071
# T1 sequence (P33981 1-857): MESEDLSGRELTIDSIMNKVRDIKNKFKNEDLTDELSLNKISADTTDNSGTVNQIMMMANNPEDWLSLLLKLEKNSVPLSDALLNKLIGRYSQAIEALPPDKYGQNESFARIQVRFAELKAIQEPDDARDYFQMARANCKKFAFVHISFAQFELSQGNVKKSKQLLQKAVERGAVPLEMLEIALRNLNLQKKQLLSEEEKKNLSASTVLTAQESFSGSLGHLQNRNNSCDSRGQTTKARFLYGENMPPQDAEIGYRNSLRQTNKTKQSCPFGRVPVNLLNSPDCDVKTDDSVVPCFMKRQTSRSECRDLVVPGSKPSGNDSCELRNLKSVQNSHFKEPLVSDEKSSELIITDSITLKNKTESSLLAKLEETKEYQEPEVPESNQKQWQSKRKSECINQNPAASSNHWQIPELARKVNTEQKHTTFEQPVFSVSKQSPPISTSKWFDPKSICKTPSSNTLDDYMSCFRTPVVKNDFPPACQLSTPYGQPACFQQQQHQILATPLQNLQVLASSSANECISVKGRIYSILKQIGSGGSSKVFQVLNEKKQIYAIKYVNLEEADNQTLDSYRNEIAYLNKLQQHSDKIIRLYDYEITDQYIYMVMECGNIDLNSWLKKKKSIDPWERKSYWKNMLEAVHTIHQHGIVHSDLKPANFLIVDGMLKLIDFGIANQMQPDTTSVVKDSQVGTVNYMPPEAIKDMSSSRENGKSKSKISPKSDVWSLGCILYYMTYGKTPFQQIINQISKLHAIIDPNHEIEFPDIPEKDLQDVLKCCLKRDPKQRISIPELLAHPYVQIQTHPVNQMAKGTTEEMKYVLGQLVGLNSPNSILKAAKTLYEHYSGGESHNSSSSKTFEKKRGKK
# Test: Mps-1 kinase assay (TR-FRET)
# Type: biochemical
# Conditions: Mps1 IC50 [nM], 10 μM ATP, 1 μM peptide substrate, 60 min at 22° C.
# How it was run: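 Read-out: TR-FRET from Europium-labelled anti-phospho(Ser/Thr) antibody to SA-XLent after 1 h detection incubation at 22° C. Inhibition of kinase activity measured.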
row,SMILES,IC50 [nM]
1,"CC(C)CNc1cc(-c2ccc(F)cc2)nn2c(-c3ccc(C(=O)NC4CC4)cc3)cnc12 [Example 104, N-cyclopropyl-4-{6-(4-fluorophenyl)-8-[(2-methylpropyl)amino]imidazo[1,2-b]pyridazin-3-yl}benzamide]",< 1
2,"CC(C)(O)CNc1cc(Sc2ccccc2)nn2c(-c3ccc(C(=S)NC4CC4)cc3)cnc12 [Example 245, N-cyclopropyl-4-{8-[(2-hydroxy-2-methylpropyl)amino]-6-(phenylsulfanyl)imidazo[1,2-b]pyridazin-3-yl}benzenecarbothioamide]",0.7
3,"Cc1cc(-c2cnc3c(NCC(C)(C)O)cc(Oc4ccc(Cl)cc4)nn23)ccc1C(=O)NC1CC1 [Example 90, 4-{6-(4-Chlorophenoxy)-8-[(2-hydroxy-2-methylpropyl)amino]imidazo[1,2-b]pyridazin-3-yl}-N-cyclopropyl-2-methylbenzamide]",0.5
4,"Cc1cc(-c2cnc3c(NCCC(F)(F)F)cc(SC4CCCCC4)nn23)ccc1C(=O)NC1CC1 [Example 171, 4-{6-(cyclohexylsulfanyl)-8-[(3,3,3-trifluoropropyl)amino]imidazo [1,2-b]pyridazin-3-yl}-N-cyclopropyl-2-methylbenzamide]",0.8
5,"COc1ccccc1Oc1cc(NCCC(F)(F)F)c2ncc(-c3ccc(C(=O)NC4CC4)c(C)c3)n2n1 [Example 223, N-cyclopropyl-4-{6-(2-methoxyphenoxy)-8-[(3,3,3-trifluoropropyl)amino]imidazo[1,2-b]pyridazin-3-yl}-2-methylbenzamide]",0.2
6,"CC(C)CNc1cc(-c2cnn(C)c2)nn2c(-c3ccc(C(=O)NC4CC4)cc3)cnc12 [Example 117, N-cyclopropyl-4-{8-[(2-methylpropyl)amino]-6-(1-methyl-1H-pyrazol-4-yl)imidazo[1,2-b]pyridazin-3-yl}benzamide]",3.3
7,"Cc1cc(-c2cnc3c(NCC(C)(C)O)cc(Nc4ccccc4)nn23)ccc1C(=O)NC1CC1 [Example 306, 4-{6-anilino-8-[(2-hydroxy-2-methylpropyl)amino]imidazo[1,2-b]pyridazin-3-yl}-N-cyclopropyl-2-methylbenzamide]",0.6
8,"Cc1cc(-c2cnc3c(NCC4CCSCC4)cc(Sc4ccccc4O)nn23)ccc1C(=O)NC1CC1 [Example 289, N-cyclopropyl-4-{6-[(2-hydroxyphenyl)sulfanyl]-8-[(tetrahydro-2H-thiopyran-4-ylmethyl)amino]imidazo[1,2-b]pyridazin-3-yl}-2-methylbenzamide]",0.2
9,"Cc1cc(-c2cnc3c(NCC4CNC4)cc(-c4ccccc4CO)nn23)ccc1C(=O)NC1CC1 [Example 338, 4-{8-[(azetidin-3-ylmethyl)amino]-6-[2-(hydroxymethyl)phenyl]imidazo[1,2-b]pyridazin-3-yl}-N-cyclo-propyl-2-methylbenzamide]",83.9
10,"COc1ccc(Oc2cc(NCCS(C)(=O)=O)c3ncc(-c4ccc(C(=O)NC5CC5)c(C)c4)n3n2)cc1F [Example 518, N-cyclopropyl-4-[6-(3-fluoro-4-methoxyphenoxy)-8-{[2-(methylsulfonyl)ethyl]amino}imidazo [1,2-b]pyridazin-3-yl]-2-methylbenzamide]",0.1
11,"Cc1ccc(Sc2cc(NCC(C)(C)O)c3ncc(-c4ccc(C(=O)NC5CC5)c(C)c4)n3n2)c(F)c1 [Example 360, N-cyclopropyl-4-{6-[(2-fluoro-4-methylphenyl)sulfanyl]-8-[(2-hydroxy-2-methylpropyl)amino]imidazo[1,2-b]pyridazin-3-yl}-2-methylbenzamide]",0.9
12,"CC(C)CNc1cc(-c2cccnc2)nn2c(-c3ccc(C(=O)NC4CC4)cc3)cnc12 [Example 138, N-cyclopropyl-4-{8-[(2-methylpropyl)amino]-6-(pyridin-3-yl)imidazo [1,2-b]pyridazin-3-yl} benzamide]",2
13,"CC(C)CNc1cc(-c2cccc(F)c2)nn2c(-c3ccc(C(=O)NC4CC4)cc3)cnc12 [Example 128, N-cyclopropyl-4-{6-(3-fluorophenyl)-8-[(2-methylpropyl)amino]imidazo[1,2-b]pyridazin-3-yl}benzamide]",2.7
14,"Cc1cc(-c2cnc3c(NCCC(F)(F)F)cc(Oc4cccc(F)c4)nn23)ccc1C(=O)NC(C)C [Example 553, 4-{6-(3-fluorophenoxy)-8-[(3,3,3-trifluoropropyl)amino]imidazo[1,2-b]pyridazin-3-yl}-N-isopropyl-2-methylbenzamide]",0.7
15,"Cc1cc(-c2cnc3c(NCC(C)(C)O)cc(Oc4cncnc4)nn23)ccc1C(=O)NC1CC1 [Example 265, N-cyclopropyl-4-{8-[(2-hydroxy-2-methylpropyl)amino]-6-(pyrimidin-5-yloxy)imidazo[1,2-b]pyridazin-3-yl}-2-methylbenzamide]",0.9

# Other lines, results leading:
row,IC50 [nM],SMILES
1,1.6,"CC(C)(O)CNc1cc(-c2ccc(F)cc2)nn2c(-c3ccc(C(=O)NC4CC4)cc3)cnc12 [Example 19, N-cyclopropyl-4-{6-(4-fluorophenyl)-8-[(2-hydroxy-2-methylpropyl)amino]imidazo[1,2-b]pyridazin-3-yl}benzamide]"
2,73.8,"Cc1cc(-c2cnc3c(NCC(C)(C)O)cc(Oc4ccccn4)nn23)ccc1C(=O)NC1CC1 [Example 274, N-cyclopropyl-4-{8-[(2-hydroxy-2-methylpropyl)amino]-6-(pyridin-2-yloxy)imidazo[1,2-b]pyridazin-3-yl}-2-methylbenzamide]"
3,0.2,"Cc1cc(-c2cnc3c(NCCC(F)(F)F)cc(Oc4ccc(F)cc4)nn23)ccc1C(=O)NC1CC1 [Example 472, N-cyclopropyl-4-{6-(4-fluorophenoxy)-8-[(3,3,3-trifluoropropyl)amino]imidazo[1,2-b]pyridazin-3-yl}-2-methyl-benzamide]"
4,26.8,"Cc1cc(-c2cnc3c(NCC(C)(C)O)cc(Oc4ccncc4)nn23)ccc1C(=O)NC1CC1 [Example 332, N-cyclopropyl-4-{8-[(2-hydroxy-2-methylpropyl)amino]-6-(pyridin-4-yl-oxy)imidazo[1,2-b]pyridazin-3-yl}-2-methylbenzamide]"
5,0.2,"Cc1cc(-c2cnc3c(NCC(C)(C)N)cc(Sc4cccc(F)c4)nn23)ccc1C(=O)NC1CC1 [Example 78, 4-{8-[(2-Amino-2-methylpropyl)amino]-6-[(3-fluorophenyl)sulfanyl]imidazo[1,2-b]pyridazin-3-yl}-N-cyclopropyl-2-methylbenzamide]"
6,< 1,"CC(C)CNc1cc(-c2cccc(C(=O)NC3CC3)c2)nn2c(-c3ccc(C(=O)NC4CC4)cc3)cnc12 [Example 135, N-cyclopropyl-3-{3-[4-(cyclopropylcarbamoyl)phenyl]-8-[(2-methylpropyl)amino]imidazo[1,2-b]pyridazin-6-yl}benzamide]"
7,0.4,"Cc1cc(F)cc(Oc2cc(NCCC(F)(F)F)c3ncc(-c4ccc(C(=O)NC5CC5)c(C)c4)n3n2)c1 [Example 88, N-cyclopropyl-4-{6-(3-fluoro-5-methylphenoxy)-8-[(3,3,3-trifluoropropyl)amino]imidazo[1,2-b]pyridazin-3-yl}-2-methylbenzamide]"
8,0.2,"Cc1cc(-c2cnc3c(NCCC(F)(F)F)cc(Nc4cc(F)cc(F)c4)nn23)ccc1C(=O)NC1CC1 [Example 378, N-cyclopropyl-4-{6-[(3,5-difluorophenyl)amino]-8-[(3,3,3-trifluoropropyl)amino]imidazo[1,2-b]pyridazin-3-yl}-2-methylbenzamide]"
9,4.6,"COc1cc(F)ccc1Nc1cc(NCC(C)(C)O)c2ncc(-c3ccc(C(=O)NC4CC4)c(C)c3)n2n1 [Example 432, N-cyclopropyl-4-{6-[(4-fluoro-2-methoxyphenyl)amino]-8-[(2-hydroxy-2-methylpropyl)amino]imidazo[1,2-b]pyridazin-3-yl}-2-methylbenzamide]"
10,0.5,"Cc1cc(-c2cnc3c(NCCC(F)(F)F)cc(Oc4cccc(F)c4)nn23)ccc1C(=O)O [Example 550, 4-{6-(3-fluorophenoxy)-8-[(3,3,3-trifluoropropyl)amino]imidazo[1,2-b]pyridazin-3-yl}-2-methylbenzoic acid]"
11,2.3,"CNC(=O)c1ccc(-c2cnc3c(NCCOC)cc(Oc4ccc(OC)cc4F)nn23)cc1C [Example 584, 4-{6-(2-fluoro-4-methoxyphenoxy)-8-[(2-methoxyethyl)a-mino]imidazo[1,2-b]pyridazin-3-yl}-N,2-dimethylbenzamide]"
12,< 0.7,"Cc1cc(-c2cnc3c(NCCC(F)(F)F)cc(Oc4ccccc4)nn23)ccc1C(=O)NC1CC1 [Example 77, N-cyclopropyl-2-methyl-4-{6-phenoxy-8-[(3,3,3-trifluoropropyl)amino]imidazo[1,2-b]pyridazin-3-yl}benzamide]"
